Laboratory results from ChEMBL document CHEMBL1133407, “Ring constrained analogues of beta-alanine-containing GPIIb/IIIa receptor antagonists” (Bioorg Med Chem Lett, 2000).

Legend:
[1] = biological target: T1, Integrin alpha-IIb/beta-3 (Homo sapiens, UniProt P05106+P08514); assay: Relative binding to unactivated/activated platelets
[2] = biological target: T1, Integrin alpha-IIb/beta-3; assay: Inhibition of Platelet glycoprotein IIb/Platelet glycoprotein IIIa binding in unactivated human platelets
Target sequence in this assay (P05106 27-788 limits assumed): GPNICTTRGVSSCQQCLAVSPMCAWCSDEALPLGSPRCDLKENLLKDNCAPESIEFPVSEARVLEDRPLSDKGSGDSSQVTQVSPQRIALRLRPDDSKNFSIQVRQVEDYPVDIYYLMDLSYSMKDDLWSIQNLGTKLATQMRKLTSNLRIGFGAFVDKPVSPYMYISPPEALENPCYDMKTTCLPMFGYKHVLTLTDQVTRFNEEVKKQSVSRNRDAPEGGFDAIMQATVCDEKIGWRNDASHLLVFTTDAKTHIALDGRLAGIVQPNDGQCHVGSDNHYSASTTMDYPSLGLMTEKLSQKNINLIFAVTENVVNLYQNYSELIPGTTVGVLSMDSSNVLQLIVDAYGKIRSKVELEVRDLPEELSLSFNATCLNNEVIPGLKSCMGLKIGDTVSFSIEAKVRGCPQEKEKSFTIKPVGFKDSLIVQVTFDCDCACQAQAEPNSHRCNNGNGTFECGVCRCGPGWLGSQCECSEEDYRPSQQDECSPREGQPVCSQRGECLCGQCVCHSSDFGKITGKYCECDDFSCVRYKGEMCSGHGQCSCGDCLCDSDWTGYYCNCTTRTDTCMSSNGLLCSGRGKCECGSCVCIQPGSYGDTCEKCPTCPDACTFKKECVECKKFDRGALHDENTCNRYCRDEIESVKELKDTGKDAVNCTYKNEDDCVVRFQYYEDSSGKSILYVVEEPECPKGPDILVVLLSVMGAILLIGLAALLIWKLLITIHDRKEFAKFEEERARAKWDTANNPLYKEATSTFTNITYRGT
Target sequence in this assay (P08514 32-887 limits assumed): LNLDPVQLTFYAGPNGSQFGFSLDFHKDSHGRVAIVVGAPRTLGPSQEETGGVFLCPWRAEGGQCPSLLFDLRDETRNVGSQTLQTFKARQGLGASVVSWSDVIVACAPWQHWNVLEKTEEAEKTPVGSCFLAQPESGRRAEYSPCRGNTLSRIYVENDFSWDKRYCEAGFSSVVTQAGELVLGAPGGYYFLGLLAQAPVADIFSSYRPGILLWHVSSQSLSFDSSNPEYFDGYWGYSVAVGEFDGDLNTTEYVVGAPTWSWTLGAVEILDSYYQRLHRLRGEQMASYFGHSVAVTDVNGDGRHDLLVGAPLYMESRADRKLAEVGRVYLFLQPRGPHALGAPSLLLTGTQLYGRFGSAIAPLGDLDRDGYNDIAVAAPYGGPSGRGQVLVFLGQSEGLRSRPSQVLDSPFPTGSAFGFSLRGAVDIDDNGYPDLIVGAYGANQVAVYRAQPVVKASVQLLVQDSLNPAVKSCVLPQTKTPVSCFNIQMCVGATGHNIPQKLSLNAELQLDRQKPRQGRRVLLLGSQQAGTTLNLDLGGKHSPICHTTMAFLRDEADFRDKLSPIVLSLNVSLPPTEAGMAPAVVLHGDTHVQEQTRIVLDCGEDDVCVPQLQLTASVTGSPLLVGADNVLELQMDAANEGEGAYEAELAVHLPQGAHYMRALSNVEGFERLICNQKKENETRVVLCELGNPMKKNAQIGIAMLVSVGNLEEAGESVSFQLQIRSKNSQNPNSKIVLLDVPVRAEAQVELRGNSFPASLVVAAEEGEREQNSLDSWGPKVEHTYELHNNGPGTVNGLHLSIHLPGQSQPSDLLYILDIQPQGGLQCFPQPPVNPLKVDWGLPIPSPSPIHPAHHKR
Target sequence in this assay (P08514 891-1039 limits assumed): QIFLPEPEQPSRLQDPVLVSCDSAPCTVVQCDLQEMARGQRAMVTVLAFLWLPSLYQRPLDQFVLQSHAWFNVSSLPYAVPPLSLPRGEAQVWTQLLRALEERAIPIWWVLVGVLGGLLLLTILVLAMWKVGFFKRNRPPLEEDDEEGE

[3] = biological target: T1, Integrin alpha-IIb/beta-3; assay: Inhibition of GPIIb/IIIa binding in activated human platelets; format: functional
Target sequence in this assay (P05106 27-788 limits assumed): as the sequence (P05106 27-788 limits assumed) above
Target sequence in this assay (P08514 32-887 limits assumed): as the sequence (P08514 32-887 limits assumed) above
Target sequence in this assay (P08514 891-1039 limits assumed): as the sequence (P08514 891-1039 limits assumed) above

Row | SMILES | Ratio [1] | IC50 [2] [nM] | IC50 [3] [nM]
1 | N=C(N)c1ccc(C2=NOC(CC(=O)N3CCCCC3CC(=O)O)C2)cc1 (single isomer, unassigned; isomer C) [listing 1 of 2 here] | 32 |  | 
2 | N=C(N)c1ccc(C2=NOC(CC(=O)N3CCCCC3CC(=O)O)C2)cc1 (single isomer, unassigned; isomer C) [listing 2 of 2 here] |  | 64 | 2
3 | N=C(N)c1ccc(C2=NOC(CC(=O)NCCC(=O)O)C2)cc1 (stereo not given) | 28 | 112 | 4
4 | N=C(N)c1ccc(C2=NOC(CC(=O)N3CCCCC3CC(=O)O)C2)cc1 (single isomer, unassigned; isomer D) |  | > 5000 | 

Next, values leading:

Row | Ratio [1] | IC50 [2] [nM] | IC50 [3] [nM] | SMILES
5 | 19 |  |  | N=C(N)c1ccc(C2=NOC(CC(=O)N3CCCCC3CC(=O)O)C2)cc1 (single isomer, unassigned; isomer B) [listing 1 of 2 here]
6 |  | 5800 | 302 | N=C(N)c1ccc(C2=NOC(CC(=O)N3CCCCC3CC(=O)O)C2)cc1 (single isomer, unassigned; isomer B) [listing 2 of 2 here]
